Experimental data published in patent US20250057790A1, “AN INJECTABLE PHARMACEUTICAL COMPOSITION FOR THE TREATMENT OF RESPIRATORY DISEASES IN ANIMALS” (priority 2021, published 2025).
Values after ≈ are worked out from the molar mass of the structure shown.

Assays:
Glaesserella parasuis = assay: MIC determination, agar-dilution (chocolate agar GC II), field isolates; type: cell-based
Protocol: (§1) This study determined the in vitro activity Compound (A), the enantiomer of the compound of Formula (I), against different isolates of Actinobacillus (A.) pleuropneumoniae, Bordetella (B.) bronchiseptica, Mannheimia (M.) haemolytica, Pasteurella (P.) multocida, Histophilus (H.) somni and Glaesserella parasuis collected in different European countries.
(§2) The in vitro activity was determined by measuring the minimum inhibitory concentrations (MIC) according to CLSI document VET01-A4 [1] and by calculating MIC50 and MIC90.
(§3) A total of 193 field isolates were tested: 31 of A. pleuropneumoniae, 20 of B. bronchiseptica, 20 of H. somni, 20 H. parasuis, 55 of M. haemolytica and 47 of P. multocida. All bacteria were isolated from the respiratory tract of cattle and swine suffering from respiratory disease. All isolates were epidemiologically unrelated as specified by the different suppliers. E. coli ATCC 25922 (ID 6105) and M. haemolytica ATCC 33396 (ID 6374) were used as reference strains for testing isolates of B. bronchiseptica, M. haemolytica and P. multocida. A. pleuropneumoniae ATCC 27090 (ID 6314) and H. somni ATCC 700025 (ID 6315) were used as reference strains for the testing isolates of A. pleuropneumoniae, H. somni and Glaesserella parasuis. Additionally, H. parasuis (G. parasuis) ATCC 19417 was included as type strain for growth control.
(§4) • Mueller-Hinton agar (Becton Dickinson, Lot 9224866) • Cation-adjusted Mueller-Hinton broth, (CAVHB, Becton Dickinson, Lot 8190586) • Sheep blood, defibrinated (Thermo Scientific, Lot 37091500) • Chocolate agar, GC II with IsoVitalex™ (Becton Dickinson, Lot 0147695) • GC-agar base (Becton Dickinson, Lot 6082608) • Hemoglobin solution (Becton Dickinson, Lot 7142854) • Vitox (Oxoid, Lot 2344976) • Veterinary fastidious Medium (VFM), prepared according to CLSI document VET01-A4 [1], containing: • CAMHB (Becton Dickinson, Lot 8190586) • Yeast extract (Sigma, Lot BCBS5470V) • Lysed horse blood (Thermo Scientific, Lot 35875000) • Supplement C™ (Becton Dickinson, Lot 8030960) • Deionized water
(§5) The MICs for all isolates except for H. somni and Glaesserella parasuis isolates, were determined by using the broth-microdilution method according to CLSI document VET01-A4 [1]. For isolates of H. somni and Glaesserella parasuis the agar-dilution method with chocolate agar GC II, was used. The test concentration range for all compounds was 16 μg/mL to 0.016 μg/mL.
(§6) For isolates tested by the agar-dilution method, results were interpreted according to the CLSI document VET01-S3 [2]. […] The MIC50 and MIC90 represent the concentrations at which a minimum of 50% or 90% of the isolates tested are inhibited.

[1] = Lung tissue study in cattle; type: in vivo; conditions: after slaughter
Protocol: The same animals and compositions of Compound A that were used in Example 5 were also used for the Lung tissue study. The lung was freed from the trachea and appending tissues. One half of the lung was homogenized using a food processor (Robot Coupe). Two aliquots of approximately 1 g were placed into 15 mL Falcon tubes. From the liver, kidney and a skeletal muscle (long back muscle) scissor snips from at least two locations were collected to a total mass of ca. 1 g each and placed into 15 mL Falcon tubes. Tissue samples were diluted with blank EDTA cattle plasma 1+3 (w/v) and samples were homogenized using a FastPrep™ System. After centrifugation aliquots of the supernatants were used to determine compound concentrations by a HPLC-MS/MS procedure.

M. haemolytica = assay: MIC determination, broth-microdilution (CLSI VET01-A4), field isolates; type: cell-based, Mannheimia haemolytica
Protocol: as §1, §2, §3, §4, §5
(§7) The MIC results were interpreted according to the CLSI document VET01-S3 [2]. […] All wells containing test item were compared with the growth-control wells. The lowest concentration of compound at which no visible growth (i.e. no turbidity) was detected by the unaided eye was recorded as the MIC. If a “trailing endpoint” occurs, the MIC is defined as the first concentration at which a markedly reduction (about 90%) of the inoculum is observed.
as §6

A. pleuropneumoniae = assay: as above; type: cell-based, Actinobacillus pleuropneumoniae
Protocol: as §1, §2, §3, §4, §5
The MIC results were interpreted according to the CLSI document VET01-S3 [2]. […] All wells containing test item were compared with the growth-control wells. The lowest concentration of compound at which no visible growth (i.e. no turbidity) was detected by the unaided eye was recorded as the MIC. […]

[2] = tested on: P. multocida (bovine origin); assay: as above; type: cell-based, Pasteurella multocida
Protocol: as §1, §2, §3, §4, §5, §7, §6

[3] = tested on: P. multocida (porcine origin); assay: as above; type: cell-based, Pasteurella multocida
Protocol: as §1, §2, §3, §4, §5, §7, §6

[4] = Glaesserella parasuis, 20 isolates, agar dilution
[5] = Mannheimia haemolytica, 55 isolates, broth microdilution
[6] = Actinobacillus pleuropneumoniae, 31 isolates, broth microdilution
[7] = Pasteurella multocida, 25 isolates of bovine origin, broth microdilution
[8] = of 25 isolates tested, bovine origin
[9] = Pasteurella multocida, 22 isolates of porcine origin, broth microdilution
[10] = of 22 isolates tested, porcine origin

SMILES: COCCNCc1ccc(C#Cc2ccc(C(=O)N[C@H](C(=O)NO)C(C)(C)N)cc2)cc1 [Compound A]
- MIC50 (Glaesserella parasuis; [4]): 1 µg/mL (≈ 2.28 µM)
- MIC90 (Glaesserella parasuis; [4]): 2 µg/mL (≈ 4.56 µM)
- Distribution of MICs: number of isolates with MIC 0.5 μg/mL (Glaesserella parasuis; of 20 isolates tested): 2
- Distribution of MICs: number of isolates with MIC 1 μg/mL (Glaesserella parasuis; of 20 isolates tested): 12
- Distribution of MICs: number of isolates with MIC 2 μg/mL (Glaesserella parasuis; of 20 isolates tested): 5
- Distribution of MICs: number of isolates with MIC 4 μg/mL (Glaesserella parasuis; of 20 isolates tested): 1
- Detection in tissue samples from lungs [1]: substantial amounts
- MIC50 (M. haemolytica; [5]): 0.5 µg/mL (≈ 1.14 µM)
- MIC90 (M. haemolytica; [5]): 0.5 µg/mL (≈ 1.14 µM)
- Distribution of MICs: number of isolates with MIC 0.063 μg/mL (M. haemolytica; of 55 isolates tested): 2
- Distribution of MICs: number of isolates with MIC 0.125 μg/mL (M. haemolytica; of 55 isolates tested): 6
- Distribution of MICs: number of isolates with MIC 0.25 μg/mL (M. haemolytica; of 55 isolates tested): 15
- Distribution of MICs: number of isolates with MIC 0.5 μg/mL (M. haemolytica; of 55 isolates tested): 27
- Distribution of MICs: number of isolates with MIC 1 μg/mL (M. haemolytica; of 55 isolates tested): 5
- MIC50 (A. pleuropneumoniae; [6]): 1 µg/mL (≈ 2.28 µM)
- MIC90 (A. pleuropneumoniae; [6]): 2 µg/mL (≈ 4.56 µM)
- Distribution of MICs: number of isolates with MIC 1 μg/mL (A. pleuropneumoniae; of 31 isolates tested): 22
- Distribution of MICs: number of isolates with MIC 2 μg/mL (A. pleuropneumoniae; of 31 isolates tested): 9
- MIC50 [2, 7]: 0.032 µg/mL (≈ 0.073 µM)
- MIC90 [2, 7]: 0.063 µg/mL (≈ 0.144 µM)
- Distribution of MICs: number of isolates with MIC 0.032 μg/mL [2, 8]: 12
- Distribution of MICs: number of isolates with MIC 0.063 μg/mL [2, 8]: 6
- Distribution of MICs: number of isolates with MIC 0.125 μg/mL [2, 8]: 1
- Distribution of MICs: number of isolates with MIC ≤0.016 μg/mL [2, 8]: 6
- MIC50 [3, 9]: 0.032 µg/mL (≈ 0.073 µM)
- MIC90 [3, 9]: 0.063 µg/mL (≈ 0.144 µM)
- Distribution of MICs: number of isolates with MIC 0.032 μg/mL [3, 10]: 12
- Distribution of MICs: number of isolates with MIC 0.063 μg/mL [3, 10]: 6
- Distribution of MICs: number of isolates with MIC 0.125 μg/mL [3, 10]: 1
- Distribution of MICs: number of isolates with MIC ≤0.016 μg/mL [3, 10]: 3
